For 28 compounds, melting point results are on record in patent publication US7718808B2, “Thiazole derivatives” (Kyowa Hakko Kirin Co., Ltd., priority 2003, dated 2010).

Where only a bound is given, the exact number is not on record here.

Regarding `COC1CCN(CC(=O)Nc2nc(-c3ccco3)c(C(=O)c3ccccn3)s2)CC1.Cl`, the melting point was 220 to 232 °C (dec.). Regarding `CCN(CC)C(=O)C1CCCN(CC(=O)Nc2nc(-c3ccco3)c(C(=O)c3ccccn3)s2)C1.Cl` (stereo not shown), the melting point lay in the range of 180 to 185 °C.

Turning to `CN1CCN(CC(=O)Nc2nc(-c3ccco3)c(C(=O)c3ccccn3)s2)CC1=O.Cl`, the melting point is 170 to 188 °C. Take `O=C(Nc1nc(-c2ccco2)c(-c2ccncc2)s1)c1ccc(F)cc1` [Compound 102, 4-Fluoro-N-[4-(2-furyl)-5-(4-pyridyl)thiazol-2-yl]benzamide]: the melting point was 270 to 300 °C (dec.).

`COc1ccc(C(=O)Nc2nc(-c3ccco3)c(-c3ccncc3)s2)cc1` [Compound 103, N-[4-(2-Furyl)-5-(4-pyridyl)thiazol-2-yl]-4-methoxybenzamide] showed a melting point of 235 to 245 °C. Next, `CC(C)(C)C(=O)Nc1nc(-c2ccco2)c(-c2ccncc2)s1` [Compound 104, N-[4-(2-Furyl)-5-(4-pyridyl)thiazol-2-yl]-2,2-dimethylpropanamide]: 240 to 241 °C. Next, `COc1cc(C(=O)Nc2nc(-c3ccco3)c(-c3ccncc3)s2)ccn1` [Compound 105, N-[4-(2-Furyl)-5-(4-pyridyl)thiazol-2-yl]-2-methoxypyridine-4-carboxamide]: 285 to 288 °C; `O=C(Nc1nc(-c2ccco2)c(-c2ccncc2)s1)c1ccnc(Cn2ccnc2)c1` [Compound 108, N-[4-(2-Furyl)-5-(4-pyridyl)thiazol-2-yl]-2-(imidazol-1-ylmethyl)pyridine-4-carboxamide]: 239 to 250 °C. As for `CN(C)CCN(C)Cc1cc(C(=O)Nc2nc(-c3ccco3)c(-c3ccncc3)s2)ccn1` [Compound 109, 2-{N-[2-(Dimethylamino)ethyl]-N-methylaminomethyl}-N-[4-(2-furyl)-5-(4-pyridyl)thiazol-2-yl]pyridine-4-carboxamide], the figure is 203 to 205 °C; as for `COCCN(C)Cc1cc(C(=O)Nc2nc(-c3ccco3)c(-c3ccncc3)s2)ccn1` [Compound 110, N-[4-(2-Furyl)-5-(4-pyridyl)thiazol-2-yl]-2-[N-(2-methoxyethyl)-N-methylaminomethyl]pyridine-4-carboxamide], 195 to 197 °C; as for `O=C(Nc1nc(-c2ccco2)c(-c2ccncc2)s1)c1ccnc(CN2CCC(O)CC2)c1` [Compound 111, N-[4-(2-Furyl)-5-(4-pyridyl)thiazol-2-yl]-2-(4-hydroxypiperidinomethyl)pyridine-4-carboxamide], 203 to 208 °C. Compound `O=C(Nc1nc(-c2ccco2)c(-c2ccncc2)s1)c1cc[nH]c(=O)c1` [Compound 112, N-[4-(2-Furyl)-5-(4-pyridyl)thiazol-2-yl]-2-oxo-1,2-dihydropyridine-4-carboxamide] returned a melting point of 277 to 281 °C. Take `O=C(Nc1nc(-c2ccco2)c(-c2ccncc2)s1)c1ccn(Cc2ccccc2)c(=O)c1` [Compound 113, 1-Benzyl-N-[4-(2-furyl)-5-(4-pyridyl)thiazol-2-yl]-2-oxo-1,2-dihydropyridine-4-carboxamide]: the melting point was in the range of 244 to 248 °C. As for `COc1ccc(-c2sc(NC(=O)c3ccccc3)nc2-c2ccco2)cc1` [Compound 119, N-[4-(2-Furyl)-5-(4-methoxyphenyl)thiazol-2-yl]benzamide], the figure is 90 to 98 °C; as for `Cn1ccc(-c2sc(NC(=O)c3ccncc3)nc2-c2ccco2)cc1=O` [Compound 123, N-[4-(2-Furyl)-5-(1-methyl-2-oxo-1,2-dihydropyridine-4-yl)thiazol-2-yl]pyridine-4-carboxamide], 280 to 282 °C. As for `CCn1ccc(-c2sc(NC(=O)c3ccncc3)nc2-c2ccco2)cc1=O` [Compound 124, N-[5-(1-Ethyl-2-oxo-1,2-dihydropyridin-4-yl)-4-(2-furyl)thiazol-2-yl]pyridine-4-carboxamide], the figure is 245 to 248 °C; as for `O=C(Nc1nc(-c2ccco2)c(-c2ccn(Cc3ccccc3)c(=O)c2)s1)c1ccncc1` [Compound 125, N-[5-(1-Benzyl-2-oxo-1,2-dihydropyridin-4-yl)-4-(2-furyl)thiazol-2-yl]pyridine-4-carboxamide], 137 to 140 °C; as for `Cn1cc(-c2sc(NC(=O)c3ccncc3)nc2-c2ccco2)ccc1=O` [Compound 126, N-[4-(2-Furyl)-5-(1-methyl-2-oxo-1,2-dihydropyridin-5-yl)thiazol-2-yl]pyridine-4-carboxamide], 294 to 295 °C. As for `CCn1cc(-c2sc(NC(=O)c3ccncc3)nc2-c2ccco2)ccc1=O` [Compound 127, N-[5-(1-Ethyl-2-oxo-1,2-dihydropyridin-5-yl)-4-(2-furyl)thiazol-2-yl]pyridine-4-carboxamide], the figure is 285 to 289 °C; as for `O=C(Nc1nc(-c2ccco2)c(-c2ccc(=O)n(Cc3ccccc3)c2)s1)c1ccncc1` [Compound 128, N-[5-(1-Benzyl-2-oxo-1,2-dihydropyridin-5-yl)-4-(2-furyl)thiazol-2-yl]pyridine-4-carboxamide], 215 to 218 °C. Compound `CCn1c(-c2sc(NC(=O)c3ccncc3)nc2-c2ccco2)cccc1=O` [Compound 129, N-[5-(1-Ethyl-6-oxo-1,6-dihydropyridin-2-yl)-4-(2-furyl)thiazol-2-yl]pyridine-4-carboxamide] gave a melting point above 300 °C. The compound `CCn1nc(-c2sc(NC(=O)c3ccncc3)nc2-c2ccco2)ccc1=O` [Compound 130, N-[5-(1-Ethyl-6-oxo-1,6-dihydropyridazin-3-yl)-4-(2-furyl)thiazol-2-yl]pyridine-4-carboxamide] yielded a melting point of 235 to 239 °C.

On to `CC(C)(O)C(=O)Nc1nc(-c2ccco2)c(C(=O)c2ccccc2)s1` [Compound 137, N-[5-Benzoyl-4-(2-furyl)thiazol-2-yl]-2-hydroxy-2-methylpropanamide], for which the melting point fell in the range of 153 to 154 °C. Compound `O=C(c1ccccc1)c1sc(NC(=O)C2(O)CC2)nc1-c1ccco1` [Compound 138, N-[5-Benzoyl-4-(2-furyl)thiazol-2-yl]-1-hydroxycyclopropanecarboxamide] displayed a melting point of 202 to 205 °C.

Regarding `CN(C)Cc1cc(C(=O)Nc2nc(-c3ccco3)c(C(=O)c3ccccc3)s2)ccn1` [Compound 141, N-[5-Benzoyl-4-(2-furyl)thiazol-2-yl]-2-(dimethylaminomethyl)pyridine-4-carboxamide], the melting point was in the range of 205 to 209 °C. With `O=C(Nc1nc(-c2ccco2)c(C(=O)c2ccccc2)s1)c1ccnc(CN2CCOCC2)c1` [Compound 144, N-[5-Benzoyl-4-(2-furyl)thiazol-2-yl]-2-(morpholinomethyl)pyridine-4-carboxamide], the melting point lay within 212 to 213 °C.

On to `COCCN(C)c1cc(C(=O)Nc2nc(-c3ccco3)c(C(=O)c3ccccc3)s2)ccn1` [Compound 145, N-[5-Benzoyl-4-(2-furyl)thiazol-2-yl]-2-[N-(2-methoxyethyl)-N-methylamino]pyridine-4-carboxamide], for which the melting point was 145 to 147 °C.

The compound `O=C(Nc1nc(-c2ccco2)c(C(=O)c2ccccc2)s1)c1ccnc(N2CCCCC2)c1` [Compound 146, N-[5-Benzoyl-4-(2-furyl)thiazol-2-yl]-2-piperidinopyridine-4-carboxamide] registered a melting point of 195 to 198 °C.
